According to patent publication US5436243A, “Aminoanthraquinone derivatives to combat multidrug resistance” (priority 1993, dated 1995):

How the values were obtained:
[1] = system: MCF7 WT; test: Tumor cell clonogenic assay, MCF7 WT; type: cell-based, human; settings: Homo sapiens, MCF7, read-out: Continuous Exposure IC50, MCF7 WT
Experimental: The tumor cell clonogenic assays measure clonal proliferation of tumor cells. In this assay, 300-500 cells are plated in 10 cm^2 wells, allowed to adhere overnight, and are treated the following day. Tumor cell colonies were counted after 10-12 days of culture. […] The IC50's are calculated as described above for the MTT proliferation assays.

[2] = system: renal cell carcinoma cell lines, A704, SKRC7 and UOK-39
[3] = system: MCF7 Adr 10; test: Tumor cell clonogenic assay, MCF7 ADR 10; type: cell-based, human; settings: Homo sapiens, NCI/ADR-RES, read-out: Continuous Exposure IC50, MCF7 ADR 10
[4] = molecular target: P-glycoprotein in MCF7 Adr 10 membrane vesicles (Homo sapiens, UniProt P08183); settings: MCF7 Adr 10 vesicles
[5] = system: MCF7 Adr 10; test: 72 hour MTT proliferation assay, reversal of drug resistance in MCF7 Adr 10; type: cell-based, human; settings: [1c] 0 μM
Experimental: In 72 hour MTT proliferation assays using the following method, compounds 1b, 1c and 1d were assessed for inhibition of Vinca alkaloid and anthracycline drug resistance in MDR MCF7. Additionally, compounds 1b and 1c were assessed for potentiation of sensitivity to Vinca alkaloid and anthracycline drugs in the parental MCF7 WT cell line.
METHOD: 5000 cells per well were plated in 100 μl of IMDM containing 10% FCS and allowed to adhere overnight. The following day the cells were treated with N-substituted 1,4-diaminoanthraquinones and exposed to graded concentrations of antineoplastic agents. 50 μl of IMDM 10% FCS containing either vehicle or N-substituted 1,4-diaminoanthraquinones at 3 times the final tested concentration was added to cells at timed intervals. The plates were incubated for 2 hours at 37° C. to allow maximal cellular accumulation of N-substituted 1,4-diaminoanthraquinones. 40 μl aliquots of IMDM 10% FCS containing either vehicle or graded concentrations of antineoplastic drugs at 5 times the final concentration were added to treatment groups. Following this addition, 10 μl of IMDM 10% FCS containing either vehicle or N-substituted 1,4-diaminoanthraquinone at 5 times the final concentration was added to each group of wells. The cells were incubated for 72 hours after treatment. At this time the viable cells in each treatment group were estimated in a colorimetric assay by adding MTT and incubating the cells at 37° C. for 3-4 hours. The media in each well was aspirated and MTT formazan was solubilized in isopropyl alcohol acidified with 0.1 N HCl. The absorbance of the solubilized formazan was quantitated using a plate reader spectrophotometer. […] The concentrations of antineoplastic drugs which inhibited proliferation by 50% (IC50's) were estimated by calculating a percentage from the ratio: antineoplastic drug treated groups/control group absorbance and plotting the dose response curve on semilog paper. The IC50 was estimated from this curve. To assess the effects of inhibition of resistance by N-substituted 1,4-diaminoanthraquinones, the percentages were calculated relative to cell groups treated with resistance modifier alone and IC50's calculated as above. A reversal factor was calculated by dividing the IC50 to the antineoplastic drug alone (Control group) by the IC50 to antineoplastic drug in cells treated with resistance modifier.

[6] = in vitro; settings: human
Experimental: (§1) Myelosuppression is often a dose limiting side effect of chemotherapeutic agents. […] The toxicities to human granulocyte-macrophage progenitors (CFU-GM) of 1b, 1c, and VLB was assessed by measuring inhibition of CFU-GM proliferation in cultures continuously exposed to each agent alone and compared to the toxicities to sensitive and resistant MCF7 in tumor cell clonogenic assays.
(§2) METHOD: The CFLI-GM assay measures clonal proliferation of granulocyte/macrophage precursors in semisolid agar cultures. The progeny of the granulocyte/macrophage precursors remain in proximity of the progenitor cells and form colonies. Colonies which contain greater than 40 cells after 10-12 days of culture are counted using an inverted phase contrast microscope. The tumor cell clonogenic assays measure clonal proliferation of tumor cells. In this assay, 300-500 cells are plated in 10 cm^2 wells, allowed to adhere overnight, and are treated the following day. Tumor cell colonies were counted after 10-12 days of culture. The times of exposure in these experiments are similar; however, the concentrations of FCS are 20% in the CFU-GM assay and 10% in the tumor cell clonogenic assays. The IC50's are calculated as described above for the MTT proliferation assays. (See Example 4).
(§3) To facilitate this comparison, a CFLI-GM toxicity index was calculated by dividing the CFU-GM IC50 by the respective tumor cell clonogenic IC50's in sensitive and resistant cells.

[7] = system: granulocyte-macrophage progenitors (CFU-GM); test: in vitro
Experimental: as §1, §2, §3

Chain of P-glycoprotein in MCF7 Adr 10 membrane vesicles (P08183 whole entry): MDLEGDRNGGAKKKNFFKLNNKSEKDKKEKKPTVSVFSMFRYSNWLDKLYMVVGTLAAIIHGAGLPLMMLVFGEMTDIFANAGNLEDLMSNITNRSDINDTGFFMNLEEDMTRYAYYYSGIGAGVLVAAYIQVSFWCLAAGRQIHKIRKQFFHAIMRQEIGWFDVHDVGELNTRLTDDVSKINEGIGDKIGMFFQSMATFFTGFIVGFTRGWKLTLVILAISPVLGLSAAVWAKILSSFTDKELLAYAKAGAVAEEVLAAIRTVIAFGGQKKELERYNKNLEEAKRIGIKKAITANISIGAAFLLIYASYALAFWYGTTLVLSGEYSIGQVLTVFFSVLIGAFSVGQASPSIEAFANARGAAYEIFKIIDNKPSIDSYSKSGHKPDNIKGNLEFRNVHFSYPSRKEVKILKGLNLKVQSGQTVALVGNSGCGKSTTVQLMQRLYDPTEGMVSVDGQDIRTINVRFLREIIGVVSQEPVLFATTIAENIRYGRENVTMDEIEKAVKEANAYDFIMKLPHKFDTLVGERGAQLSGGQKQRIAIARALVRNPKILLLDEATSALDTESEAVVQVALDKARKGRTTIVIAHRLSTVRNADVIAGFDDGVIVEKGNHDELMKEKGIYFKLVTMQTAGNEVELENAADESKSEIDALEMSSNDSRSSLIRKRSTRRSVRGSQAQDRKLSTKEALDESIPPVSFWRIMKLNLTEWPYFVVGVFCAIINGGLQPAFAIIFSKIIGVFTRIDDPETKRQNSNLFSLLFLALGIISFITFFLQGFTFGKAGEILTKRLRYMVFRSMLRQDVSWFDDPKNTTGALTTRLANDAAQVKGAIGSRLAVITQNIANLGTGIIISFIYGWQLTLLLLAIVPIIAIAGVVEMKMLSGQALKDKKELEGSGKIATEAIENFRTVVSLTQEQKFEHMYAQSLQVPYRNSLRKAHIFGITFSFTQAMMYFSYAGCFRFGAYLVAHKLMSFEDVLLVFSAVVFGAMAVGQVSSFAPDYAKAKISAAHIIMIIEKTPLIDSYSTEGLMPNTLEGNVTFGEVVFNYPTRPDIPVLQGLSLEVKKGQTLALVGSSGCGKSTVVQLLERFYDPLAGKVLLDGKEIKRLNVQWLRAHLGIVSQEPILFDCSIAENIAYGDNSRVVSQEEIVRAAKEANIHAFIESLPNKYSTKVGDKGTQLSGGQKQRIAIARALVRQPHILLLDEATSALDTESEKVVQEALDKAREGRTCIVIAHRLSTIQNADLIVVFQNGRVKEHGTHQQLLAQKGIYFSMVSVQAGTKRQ

CC[C@]1(O)C[C@@H]2CN(CCc3c([nH]c4ccccc34)[C@@](C(=O)OC)(c3cc4c(cc3OC)N(C)[C@H]3[C@@](O)(C(=O)OC)[C@H](OC(C)=O)[C@]5(CC)C=CCN6CC[C@]43[C@@H]65)C2)C1 [VLB, reference compound]
IC50 [1]: 0.59 nM
vinblastine IC50 in renal lines relative to vinblastine IC50 of sensitive MCF7 [2]: 10-600 fold
IC50 [3]: 210 nM
effect of unlabeled VLB on [3H] VLB association [4]: inhibited by addition of unlabeled VLB
IC50 ([5]; Homo sapiens, NCI/ADR-RES, average ± SD of 3 experiments, read-out: VLB IC50): 790 nM
Reversal Factor (VLB) [5]: 1.0
selectivity ratio ([6]; cfu-gm vs mcf7, CFU-GM toxicity indices): < 1
selectivity ratio ([6]; cfu-gm vs mcf7 adr 10, toxicity to CFU-GM relative to MDR cells): ~1000
toxicity to CFU-GM relative to drug sensitive WT cancer cells [7]: approximately twice as toxic to CFU-GM
IC50 ([7]; Homo sapiens, CFU-GM, read-out: Continuous Exposure IC50, CFU-GM): 0.28 nM
